Target: T1, ferroportin (Fpn) (Homo sapiens, UniProt Q9NP59)
T1 construct: expressed in transfected cells; host or cells: HEK-293 cell line #354 (derivative of HEK-293 Tet-ON Advanced)
T1 sequence (Q9NP59 1-571): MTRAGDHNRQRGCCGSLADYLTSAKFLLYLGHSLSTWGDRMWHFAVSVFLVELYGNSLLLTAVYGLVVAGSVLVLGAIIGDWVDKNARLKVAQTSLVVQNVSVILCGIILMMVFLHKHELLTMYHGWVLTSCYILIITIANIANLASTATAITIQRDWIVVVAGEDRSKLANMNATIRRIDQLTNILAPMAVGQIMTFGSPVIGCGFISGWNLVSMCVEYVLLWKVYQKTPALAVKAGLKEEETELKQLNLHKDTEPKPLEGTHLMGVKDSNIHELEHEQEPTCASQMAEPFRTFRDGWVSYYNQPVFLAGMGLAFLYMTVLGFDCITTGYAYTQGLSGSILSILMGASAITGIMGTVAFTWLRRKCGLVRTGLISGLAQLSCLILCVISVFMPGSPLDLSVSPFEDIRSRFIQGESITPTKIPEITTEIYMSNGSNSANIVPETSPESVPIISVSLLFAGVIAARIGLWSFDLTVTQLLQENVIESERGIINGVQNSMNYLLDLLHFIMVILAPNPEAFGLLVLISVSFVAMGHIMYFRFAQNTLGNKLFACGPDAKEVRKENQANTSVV
Experiment: Inhibition of ferroportin mediated iron export activity in an iron response assay (BLA reporter, HEK-293 cell line #354)
Assay type: cell-based
Conditions: for IC50: HEK-293 cell line #354, BLA reporter, tested as 3HCl-salts, n=3, read-out: Iron response (HEK354 Blazer) IC50; for EC50: average of multiple measurements, iron response assay, 3HCl-salts, read-out: BLAzer EC50
Description: Intracellular iron levels are indirectly measured in this assay by monitoring the activity of a beta-lactamase (BLA) reporter gene fused to the human ferritin promoter and the associated iron regulatory element (IRE) contained within the 5′ untranslated region of the ferritin mRNA. Expression of ferroportin (Fpn) in such a cell line leads to iron efflux and lower iron levels as reflected by lower activity of the reporter gene. On the other hand, inhibition of Fpn-mediated iron efflux results in elevated cellular iron levels which is detected as increased reporter gene activity. Small molecular weight Fpn inhibitor compounds were tested for dose-dependent effects in this in vitro iron response assay as described below.
The HEK-293 cell line #354 was generated by stable integration of (i) a human Fpn-GFP fusion construct inserted in a derivative of the doxycycline-inducible pTRE-Tight-BI plasmid (Clontech, Cat. 631068) and (ii) a human ferritin promoter-BLA reporter gene into a derivative of the HEK-293 Tet-ON Advanced cell line (Clontech). To generate the ferritin-BLA reporter gene construct, a 1.4 kb fragment of the human ferritin H promoter was amplified by PCR from human genomic DNA (forward primer 5′-[…]-3′; reverse primer 5′-GGCGGCGACTAAGGAGAGG-3′) and inserted in front of the BLA gene present in the pcDNA™6.2/cGeneBLAzer™-DEST plasmid (Invitrogen, Cat. 12578-043) thereby replacing the original CMV promoter and placing the IRE that regulates translation of the ferritin gene ca. 170 bp upstream of the start codon of the reporter gene. #354 cells were harvested from ca. 80% confluent cultures, seeded at 1.8x10^5 cells/ml in DMEM/F12 GlutaMAX™ medium (Invitrogen, Cat. 31331-028) containing 10% FBS (Clontech, Cat. 631106), 1% Penicillin-Streptomycin, 200 µg/ml Hygromycin B (Invitrogen, Cat. 10687-010), Blasticidin 5 µg/ml, (Invitrogen, Cat. R210-01), 4 µg/ml doxycycline (Clontech, Cat. 631311), 50 µl per well of 384 well PDL-coated plates and grown at 37° C. with 5% CO2. After overnight incubation, 10 µl/well of dilution series of the test compounds were added in quadruplicates and plates were further incubated overnight at 37° C. with 5% CO2. Cells were washed 3 times with HBSS leaving 25 µl per well. BLA activity was detected by adding 5 µl/well of the GeneBlazer reagent CCF4-AM (Invitrogen, Cat. K1085) to the cells. After incubation of the plates in the dark at 18° C. for 60 min., blue and green fluorescence signals were measured in a Safire2 fluorescence plate reader (Tecan) with excitation at 410 nm and emissions at 458 nm (blue) and 522 nm (green). The ratio of blue/green fluorescence as a measure for BLA activity was calculated and EC50 values were determined with the calculated blue/green fluorescence ratios as described for the hepcidin internalization assay.

| IC50 [nM] | EC50 [nM] | Structure (SMILES) |
| --- | --- | --- |
| 156 | 156 | O=C(NCc1ncccc1F)c1coc(CCNCCc2nc3ccccc3[nH]2)n1 [Compound (II)] |
| 39 | – | CC[C@H](C)[C@@H]1NC(=O)[C@@H](NC(=O)[C@@H](NC(=O)[C@@H]2CCCN2C(=O)[C@H](Cc2ccccc2)NC(=O)[C@H](Cc2c[nH]cn2)NC(=O)[C@@H](NC(=O)[C@@H](N)CC(=O)O)[C@@H](C)O)[C@@H](C)CC)CSSC[C@@H](C(=O)N[C@@H](CCCCN)C(=O)N[C@H](C(=O)O)[C@@H](C)O)NC(=O)[C@@H]2CSSC[C@@H]3NC(=O)[C@@H]4CSSC[C@H](NC(=O)[C@H](Cc5ccccc5)NC1=O)C(=O)N[C@@H](CSSC[C@H](NC(=O)[C@H](CCCCN)NC(=O)[C@H](CO)NC(=O)[C@H](CCCNC(=N)N)NC(=O)[C@H](Cc1c[nH]cn1)NC3=O)C(=O)NCC(=O)N[C@@H](CCSC)C(=O)N2)C(=O)NCC(=O)N4 [hepcidin, reference compound] |
| 168 | 168 | O=C(NCc1ncccc1Br)c1coc(CCNCCc2nc3ccccc3[nH]2)n1 [Compound (II′)] |
